Source: patent US8772316B2, “Substituted 6,7-dialkoxy-3-isoquinolinol derivatives as inhibitors of phosphodiesterase 10 (PDE10A)” (Allergan, Inc., priority 2011, dated 2014)
Structures can show the parent of a compound that is named as a salt.

Key:
Assay type in all cases: biochemical
[1] = target: PDE4D3 (Homo sapiens (Human), UniProt Q08499); test: PDE4D3 inhibition (selectivity testing)
Text: The compounds have also been tested for their activities on PDEs1-9 and PDE11.

[2] = target: PDE10A (Homo sapiens, UniProt Q9Y233); test: Phosphodiesterase assay (TR-FRET, LANCE cAMP kit); details: PDE10A (BPS Bioscience) 200 pg/well, biotin-cAMP substrate, 60 min at room temperature
[3] = target: PDE10A; test: Phosphodiesterase assay (TR-FRET, LANCE cAMP kit); details: PDE10A (BPS Bioscience) 200 pg/well, biotin-cAMP substrate, 60 min at room temperature

PDE4D3, sequence (Q08499 other isoform, or with tags, fused parts or gaps): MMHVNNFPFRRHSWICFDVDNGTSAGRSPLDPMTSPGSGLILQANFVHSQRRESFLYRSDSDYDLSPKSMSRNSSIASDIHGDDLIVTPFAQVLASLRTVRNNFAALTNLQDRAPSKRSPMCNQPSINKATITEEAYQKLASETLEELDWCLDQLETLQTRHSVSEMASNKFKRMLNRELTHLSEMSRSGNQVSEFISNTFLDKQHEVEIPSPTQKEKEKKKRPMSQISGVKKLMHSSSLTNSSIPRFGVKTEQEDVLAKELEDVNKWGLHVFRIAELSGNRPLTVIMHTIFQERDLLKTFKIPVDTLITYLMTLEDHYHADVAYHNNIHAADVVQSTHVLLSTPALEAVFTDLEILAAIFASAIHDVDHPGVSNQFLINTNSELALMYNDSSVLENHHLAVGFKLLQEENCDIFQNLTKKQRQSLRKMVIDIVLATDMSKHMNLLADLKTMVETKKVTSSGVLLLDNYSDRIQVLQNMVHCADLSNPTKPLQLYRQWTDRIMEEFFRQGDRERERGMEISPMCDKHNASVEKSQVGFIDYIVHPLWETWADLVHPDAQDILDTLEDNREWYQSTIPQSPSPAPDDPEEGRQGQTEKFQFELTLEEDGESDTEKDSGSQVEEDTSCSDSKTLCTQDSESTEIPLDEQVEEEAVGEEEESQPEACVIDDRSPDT
PDE10A (Homo sapiens, UniProt Q9Y233), sequence (Q9Y233 whole entry, looked up): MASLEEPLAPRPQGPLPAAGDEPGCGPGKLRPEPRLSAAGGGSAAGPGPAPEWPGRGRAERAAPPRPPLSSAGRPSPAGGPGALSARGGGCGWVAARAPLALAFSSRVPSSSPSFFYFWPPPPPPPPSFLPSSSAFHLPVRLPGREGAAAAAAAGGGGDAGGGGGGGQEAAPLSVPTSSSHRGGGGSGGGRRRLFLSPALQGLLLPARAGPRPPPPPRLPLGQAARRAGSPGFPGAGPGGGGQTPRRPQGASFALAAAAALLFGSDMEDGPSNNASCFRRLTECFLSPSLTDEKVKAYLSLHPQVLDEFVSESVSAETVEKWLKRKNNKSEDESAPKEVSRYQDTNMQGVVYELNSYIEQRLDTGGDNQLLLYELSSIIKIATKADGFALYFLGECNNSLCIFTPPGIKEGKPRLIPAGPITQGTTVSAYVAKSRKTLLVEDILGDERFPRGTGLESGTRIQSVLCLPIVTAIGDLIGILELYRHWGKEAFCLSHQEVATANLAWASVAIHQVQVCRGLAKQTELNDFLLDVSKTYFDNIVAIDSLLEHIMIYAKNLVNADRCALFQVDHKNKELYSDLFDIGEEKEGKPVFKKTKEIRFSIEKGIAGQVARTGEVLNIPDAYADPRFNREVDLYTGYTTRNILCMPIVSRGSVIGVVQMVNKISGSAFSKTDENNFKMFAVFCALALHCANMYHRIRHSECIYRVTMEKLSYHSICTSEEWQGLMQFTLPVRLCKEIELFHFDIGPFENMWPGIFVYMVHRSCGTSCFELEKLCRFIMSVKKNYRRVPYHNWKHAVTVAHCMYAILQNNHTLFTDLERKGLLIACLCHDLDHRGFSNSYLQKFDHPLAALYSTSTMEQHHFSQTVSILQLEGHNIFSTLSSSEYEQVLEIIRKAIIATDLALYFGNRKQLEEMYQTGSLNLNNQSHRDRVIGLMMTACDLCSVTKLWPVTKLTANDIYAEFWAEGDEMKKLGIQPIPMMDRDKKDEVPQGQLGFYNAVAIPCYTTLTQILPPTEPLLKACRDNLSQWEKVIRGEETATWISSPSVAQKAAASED

| IC50 [1] [nM] | IC50 [2] [nM] | IC50 [3] [nM] | Structure (SMILES) |
| --- | --- | --- | --- |
| 280 | 55 |  | COc1ccc2nc(NCC(F)(F)F)c(Cc3c(O)nc(C(C)C)c4cc(OC)c(OC)cc34)cc2c1 [Compound 51, 1-isopropyl-6,7-dimethoxy-4-((6-methoxy-2-(2,2,2-trifluoroethylamino)quinolin-3-yl)methyl)isoquinolin-3-ol dihydrochloride] |
| 0.9 |  | 0.12 | CCc1nc(O)c(Cc2ccc3oc4ccccc4c3c2)c2cc(OC)c(OC)cc12 [Compound 6, 4-(Dibenzo[b,d]furan-2-ylmethyl)-1-ethyl-6,7-dimethoxyisoquinolin-3-ol hydrochloride] |
| 82 | 13 |  | CCc1nc(O)c(Cc2cnc3cc(OC)ccc3c2)c2cc(OC)c(OC)cc12 [Compound 31, 1-ethyl-6,7-dimethoxy-4-((7-methoxyquinolin-3-yl)methyl)isoquinolin-3-ol dihydrochloride] |
|  | 140 |  | COc1cc2c(C)nc(O)c(Cc3cccc(Oc4ccccc4)c3)c2cc1OC [Compound 4, 6,7-dimethoxy-1-methyl-4-(3-phenoxybenzyl)isoquinolin-3-ol hydrochloride] |
|  | 698 |  | CCCc1nc(O)c(Cc2cc3cc(C)ccc3nc2N(C)C)c2cc(OC)c(OC)cc12 [Compound 36, 4-((2-(Dimethylamino)-6-methylquinolin-3-yl)methyl)-6,7-dimethoxy-1-propylisoquinolin-3-ol dihydrochloride] |
|  | 223 |  | COc1cc2c(C)nc(O)c(Cc3ccncc3)c2cc1OC [Compound 11, 6,7-dimethoxy-1-methyl-4-(pyridin-4-ylmethyl)isoquinolin-3-ol hydrochloride] |
|  | 221 |  | CCNc1nc2ccc(OC)cc2cc1Cc1c(O)nc(CNS(C)(=O)=O)c2cc(OC)c(OC)cc12 [Compound 58, N-((4-((2-(ethylamino)-6-methoxyquinolin-3-yl)methyl)-3-hydroxy-6,7-dimethoxyisoquinolin-1-yl)methyl)methanesulfonamide dihydrochloride] |
|  | 333 |  | COc1cc2c(C)nc(O)c(Cc3cccc4cnccc34)c2cc1OC [Compound 22, 4-(Isoquinolin-5-ylmethyl)-6,7-dimethoxy-1-methylisoquinolin-3-ol dihydrochloride] |
|  | 3.2 |  | CCCc1nc(O)c(Cc2ccc3nc(C)ccc3c2)c2cc(OC)c(OC)cc12 [Compound 80, 6,7-dimethoxy-4-((2-methylquinolin-6-yl)methyl)-1-propylisoquinolin-3-ol dihydrochloride] |
